Laboratory results reported in patent publication US11299715B2, “Use of iNOS inhibitors to increase viral yield in culture” (priority 2013, dated 2022).

Tests used:
[1] = test system: wtHSV-1 McIntyre strain; test: wtHSV-1 McIntyre strain propagation in 293, HeLa and Vero cells with ATA; assay type: cell-based, HSV-1
Excerpt: The wtHSV-1 KOS strain and the ICP27-deficient derivatives of the wtHSV-1 KOS strain: vectors d27-1 (Rice and Knipe, J. Virol. (1990) 64:1704-1715), rHSV-rep2/cap2 and rHSV-EGFP (Kang et al., Gene Ther. (2009) 16:229-239) and their producer ICP27-complementing V27 cell line were obtained from AGTC (Alachua, Fla.). The wtHSV-1 MacIntyre strain, purchased from Advanced Biotechnologies Inc. (ABI, Columbia Md.) and wtHSV-1 KOS strain were propagated in Vero, 293 or HeLa cell lines. Infectious vector particles were harvested 72 hr postinfection by recovering culture supernatant. The titers of HSV-1 stocks in DNase resistant particles/ml (DRP/ml) were determined by Taqman assay. Viral genomes within crude culture medium were quantified via treatment in the presence of DNase I (50 U/ml final; Promega) at 37° C. for 60 min, followed by proteinase K (Invitrogen) digestion (1 U/ml) at 50° C. for 60 min, and then denatured at 95° C. for 30 min. Linearized plasmid pZero 195 UL36 (obtained from AGTC, Inc., Alachua, Fla.) was used to generate standard curves.
ATA (Sigma-A1895 Aurintricarboxylic acid practical grade, ≥85% (titration), powder) stock solution was generated as 500 μM concentration in 100 mM sodium bicarbonate water solution. ATA stock solution was further diluted in DMEM+/−10% fetal bovine serum (FBS, Hyclone, Waltham, Mass.) into concentration ranges of […] ATA (8.5-21 μgATA/ml). The HSV-1 infection at multiplicity of infection of 0.15 (MOI=0.15) (typically 6×10^5 cells in a 6-well plate) was performed in 40% (⅖ vol) of the total final media volume for 1-2 hrs and the remaining media (60% or ⅗ of the total final volume) was added during the dilution step. The cells were then incubated 72 hours and supernatant harvested to perform forming units per milliliter (PFU/ml) and DRP/ml titer assays.
Supernatants containing virus were harvested after three days as described above. […] Finally, ATA also appeared to inhibit both types of HSV-1 viruses in HeLa cells. Two-way ANOVA; Bonferroni test; −ATA vs. +ATA: ***: p<0.001, ns: p>0.05; n=4 independent experiments.
For statistical calculations, a larger study with a set of ten independent experiments (n=10) was conducted in 6-well plates with or without ATA added during the infection step (Step 1) comparing replication-deficient d27-GFP and also wtHSV-1 McIntyre strain in order to investigate, whether ATA could increase the titer in the wtHSV-1 strain as well (FIG. 4B). ATA was added at […] to confluent cell monolayers, V27 cells for d27-1 or 293 cells for wtHSV-1 McIntyre, during the infection step (Step 1) and the cells were infected with vectors at MOI=0.15 while ATA was diluted 1 hr later to a final […] concentration.
In order to illuminate the ATA mechanism of action by human genome array and the fact that Vero and V27 are monkey-derived cell lines, wtHSV-1 propagation was tested in several human cell lines (FIGS. 4A-4B). A propagation of two wild type HSV-1 (wtHSV-1) strains, KOS and McIntyre, were compared in three cell lines: human embryonic kidney 293 (293 cells), human cervical cancer HeLa cells and African green monkey kidney epithelial Vero cells. The experiments were carried out in 10% FBS-containing media following the ATA I protocol scheme, where 50 μM ATA was supplemented during the infection step and further diluted to 20 μM ATA concentration (see Material and Methods).

[2] = test system: NOS2 = iNOS; test: Affymetrix Gen Array, NOS2 expression in 293 cells; assay type: cell-based, human; conditions: AF049656
Procedure: (§1) Confluent 293 cells (2.4×10^6 cells in a 75 cm^2 flask) were cultured in DMEM+10% FCS for approximately 20 hrs and were then infected with one plaque forming unit per cell (PFU/cell) of HSV-1 MacIntyre Strain for 90 min. ATA at a concentration 20 μM (final) was added 90 min post-infection. The infected cells were harvested at 24 h after infection. Total RNA of sufficient quality and quantity was isolated from suspension using RNeasy Plus Mini Kit (QIAGEN, Valencia, Calif.) according to the manufacturer's instructions. Whole genome expression profiling was performed on Affymetrix Human U133 Plus 2.0 Array by the Asuragen, Inc. 3 μg total RNA was provided as input material.
(§2) Overall, RNA quality assessed on the bioanalyzer had RIN values of >9. Array hybridization and scaling factors were within passing quality control range. After scanning, raw expression CEL files were processed with Affymetrix Expression Console vs.1.1.2 (affymetrix.com). Each CEL file was processed with Robust Multichip Analysis (RMA) and a summarized table was exported as a text file. All downstream genomics and statistical analyses were done with JMP Genomics (version 5) (jmp.com/software/genomics). First, a filtering step was applied to filter-out low expression, specifically, those values below 6 in log^2 mode in at least 2 out of 8 samples. […]

[3] = test system: NOS1 = nNOS; test: Affymetrix Gen Array, NOS1 expression in 293 cells; assay type: cell-based, human; conditions: for NOS1 expression, ATA: ATA alone
Procedure: as §1
Overall, RNA quality assessed on the bioanalyzer had RIN values of >9. Array hybridization and scaling factors were within passing quality control range. After scanning, raw expression CEL files were processed with Affymetrix Expression Console vs.1.1.2 (affymetrix.com). Each CEL file was processed with Robust Multichip Analysis (RMA) and a summarized table was exported as a text file. All downstream genomics and statistical analyses were done with JMP Genomics (version 5) (jmp.com/software/genomics). First, a filtering step was applied to filter-out low expression, specifically, those values below 6 in log^2 mode in at least 2 out of 8 samples. Out of 54,675 total Affy U133 Plus2 probes, 41,569 (76%) probes remained after the cutoff. Two positive control samples were also seen, human brain and pooled human universal reference RNA, respectively, that hybridized well. For future analysis, these two samples were excluded.
The first principle component separation (91.7%) is therefore explained by the effect of HSV versus Vehicle. Data was median-normalized across each probe to have a median signal of 0. ANOVA was performed to find significant differential transcripts between HSV versus Vehicle, ATA versus Vehicle, […] versus Vehicle, and HSV+ATA versus HSV alone. Multiple testing corrections were not included, and significant genes were considered less that p-value of 0.01.
To identify cell response gene signatures to wtHSV-1 McIntyre infection, transcriptional profiling was done using Affymetrix Human U133 Plus 2.0 Array with 293 cells that were either mock-treated, ATA-treated (ATA), wtHSV-1 McIntyre-infected (HSV) or ATA-treated and wtHSV-1 McIntyre-infected (HSV&ATA) for 24 h. Gene expression changes induced by infection or ATA treatment were identified by referencing the gene expression level for each probe to that corresponding in the uninfected cells sample. HSV-1 infection alone had strong impact on the gene expression profile of 293 cells when compared to untreated cells gene profile.

[4] = test system: NOS3 = eNOS; test: Affymetrix Gen Array, NOS3 expression in 293 cells; assay type: cell-based, human; conditions: probe 205581_s_at
Procedure: as §1, §2

O=C(O)C1=CC(=C(c2ccc(O)c(C(=O)O)c2)c2ccc(O)c(C(=O)O)c2)C=CC1=O [ATA, 5-((3-carboxy-4-hydroxyphenyl)(3-carboxy-4-oxo-2,5-cyclohexadien-1-ylidene)methyl)-2-hydroxybenzoic acid]
wtHSV-1 McIntyre titers in 293 cells ([1]; 50 μM ATA at Step 1, 20 μM after Step 2, 293 cells): reached the highest titers | propagation of HSV-1 McIntyre in HeLa cells ([1]; 50 μM ATA at Step 1, 20 μM after Step 2, HeLa cells): inhibit | yield of wtHSV-1 McIntyre in Vero cells ([1]; 50 μM ATA at Step 1, 20 μM after Step 2, Vero cells, 10% FBS): increased | wtHSV-1 McIntyre virus titer in 293 cells ([1]; 50 μM ATA at infection, diluted to 20 μM, 10% FBS, n=4, without ATA 1.4×10^8): 1.2×10^9 DRP/ml | increase of wtHSV-1 McIntyre titer after ATA addition ([1]; 293 cells, 6-well plates, n=10, ATA 50 μM at Step 1, final 20 μM, MOI 0.15): 9.1 times | wtHSV-1 McIntyre titer after ATA addition ([1]; 293 cells, n=10, ATA 50 μM at Step 1, final 20 μM, without ATA 3.3×10^8): 1.0×10^9 DRP/ml | 293 or Vero titers with ATA, McIntyre ([1]; summary statement): up to 1×10^9 DRP/ml | increase of wt HSV-1 McIntyre yields ([1]; summary statement): 1 log | NOS2 expression, ATA ([2]; ATA alone): −1.03 | NOS2 expression, HSV + ATA ([2]; HSV + ATA, HSV alone 2.05): 1.72 | NOS1 expression, ATA ([3]; probe 207310_s_at): 1 | NOS1 expression, HSV + ATA ([3]; probe 207310_s_at, HSV alone 2.79): 1.67 | NOS1 expression, ATA ([3]; probe 240911_at): 1.02 | NOS1 expression, HSV + ATA ([3]; probe 240911_at, HSV alone 1.71): 1.5 | NOS3 expression, ATA ([4]; ATA alone): 1.24 | NOS3 expression, HSV + ATA ([4]; HSV + ATA, HSV alone 2.45): 1.94
